Activity calls are given as the source filed them. How the calls were made is not given here.
System: CCRIS mutagenicity, Ames/micronucleus/aberration tests
Test: CCRIS mutagenicity studies
[1] = Test System: AMES SALMONELLA TYPHIMURIUM, Strain/Indicator: TA98, Metabolic Activation: NONE, Method: PREINCUBATION
[2] = Test System: AMES SALMONELLA TYPHIMURIUM, Strain/Indicator: TA100, Metabolic Activation: NONE, Method: PREINCUBATION
[3] = Test System: AMES SALMONELLA TYPHIMURIUM, Strain/Indicator: TA98, Metabolic Activation: NONE, Method: STANDARD PLATE
[4] = Test System: AMES SALMONELLA TYPHIMURIUM, Strain/Indicator: TA98, Metabolic Activation: RAT, LIVER, S-9, AROCLOR 1254, Method: STANDARD PLATE
[5] = Test System: AMES SALMONELLA TYPHIMURIUM, Strain/Indicator: TA100, Metabolic Activation: NONE, Method: STANDARD PLATE
[6] = Test System: AMES SALMONELLA TYPHIMURIUM, Strain/Indicator: TA100, Metabolic Activation: RAT, LIVER, S-9, AROCLOR 1254, Method: STANDARD PLATE
[7] = Test System: AMES SALMONELLA TYPHIMURIUM, Strain/Indicator: TA1535, Metabolic Activation: NONE, Method: STANDARD PLATE
[8] = Test System: AMES SALMONELLA TYPHIMURIUM, Strain/Indicator: TA1535, Metabolic Activation: RAT, LIVER, S-9, AROCLOR 1254, Method: STANDARD PLATE
[9] = Test System: AMES SALMONELLA TYPHIMURIUM, Strain/Indicator: TA1537, Metabolic Activation: NONE, Method: STANDARD PLATE
[10] = Test System: AMES SALMONELLA TYPHIMURIUM, Strain/Indicator: TA1537, Metabolic Activation: RAT, LIVER, S-9, AROCLOR 1254, Method: STANDARD PLATE
[11] = Test System: AMES SALMONELLA TYPHIMURIUM, Strain/Indicator: TA1538, Metabolic Activation: RAT, LIVER, S-9, AROCLOR 1254, Method: STANDARD PLATE

Measured: mutagenic call

CON
inactive: Test System: AMES SALMONELLA TYPHIMURIUM, Strain/Indicator: TA98, Metabolic Activation: HAMSTER, LIVER, S-9, AROCLOR 1254 (10%), Method: PREINCUBATION inactive; negative | [1] inactive; negative | Test System: AMES SALMONELLA TYPHIMURIUM, Strain/Indicator: TA98, Metabolic Activation: RAT, LIVER, S-9, AROCLOR 1254 (10%), Method: PREINCUBATION inactive; negative | Test System: AMES SALMONELLA TYPHIMURIUM, Strain/Indicator: TA100, Metabolic Activation: HAMSTER, LIVER, S-9, AROCLOR 1254 (10%), Method: PREINCUBATION inactive; negative | [2] inactive; negative | Test System: AMES SALMONELLA TYPHIMURIUM, Strain/Indicator: TA100, Metabolic Activation: RAT, LIVER, S-9, AROCLOR 1254 (10%), Method: PREINCUBATION inactive; negative | Test System: AMES SALMONELLA TYPHIMURIUM, Strain/Indicator: TA1535, Metabolic Activation: HAMSTER, LIVER, S-9, AROCLOR 1254 (10%), Method: PREINCUBATION inactive; negative | Test System: AMES SALMONELLA TYPHIMURIUM, Strain/Indicator: TA1535, Metabolic Activation: NONE, Method: PREINCUBATION inactive; negative | Test System: AMES SALMONELLA TYPHIMURIUM, Strain/Indicator: TA1535, Metabolic Activation: RAT, LIVER, S-9, AROCLOR 1254 (10%), Method: PREINCUBATION inactive; negative | Test System: AMES SALMONELLA TYPHIMURIUM, Strain/Indicator: TA1537, Metabolic Activation: HAMSTER, LIVER, S-9, AROCLOR 1254 (10%), Method: PREINCUBATION inactive; negative | Test System: AMES SALMONELLA TYPHIMURIUM, Strain/Indicator: TA1537, Metabolic Activation: NONE, Method: PREINCUBATION inactive; negative | Test System: AMES SALMONELLA TYPHIMURIUM, Strain/Indicator: TA1537, Metabolic Activation: RAT, LIVER, S-9, AROCLOR 1254 (10%), Method: PREINCUBATION inactive; negative

CC(S)C(=O)NCC(=O)O (stereo not given)
inactive: [3] inactive; negative | [4] inactive; negative | [5] inactive; negative | [6] inactive; negative | [7] inactive; negative | [8] inactive; negative | [9] inactive; negative | [10] inactive; negative | Test System: AMES SALMONELLA TYPHIMURIUM, Strain/Indicator: TA1538, Metabolic Activation: NONE, Method: STANDARD PLATE inactive; negative | [11] inactive; negative

COc1cc2c(c3oc4cccc(O)c4c(=O)c13)[C@@H]1CCO[C@@H]1O2
inactive: Test System: AMES SALMONELLA TYPHIMURIUM, Strain/Indicator: TA98, Metabolic Activation: RAT, LIVER, S-9, PHENOBARBITAL, Method: STANDARD PLATE inactive; negative | Test System: AMES SALMONELLA TYPHIMURIUM, Strain/Indicator: TA100, Metabolic Activation: RAT, LIVER, S-9, PHENOBARBITAL, Method: STANDARD PLATE inactive; negative

O=C1C[C@H](O)[C@@H]2c3c(ccc(O)c31)-c1ccc(O)c3c1[C@@]2(O)CCC3=O
inactive: Test System: AMES SALMONELLA TYPHIMURIUM, Strain/Indicator: TA100, Metabolic Activation: RAT LIVER S-9, AROCLOR 1254, Method: STANDARD PLATE inactive; negative | Test System: Ames Salmonella typhimurium, Strain/Indicator: TA97, Metabolic Activation: None, Method: Standard plate inactive; negative. nitrosation increased mutagenicity | Test System: Ames Salmonella typhimurium, Strain/Indicator: TA97, Metabolic Activation: Rat, Liver, S-9, Aroclor 1254 (10%), Method: Standard plate inactive; negative. nitrosation increased mutagenicity | Test System: Ames Salmonella typhimurium, Strain/Indicator: TA104, Metabolic Activation: None, Method: Standard plate inactive; negative. nitrosation increased mutagenicity | Test System: Ames Salmonella typhimurium, Strain/Indicator: TA104, Metabolic Activation: Rat, Liver, S-9, Aroclor 1254 (10%), Method: Standard plate inactive; negative. nitrosation increased mutagenicity | Test System: Chinese hamster fibroblasts, Strain/Indicator: V79 (Hprt)/6-thioguanine, Metabolic Activation: None, Method: Standard plate inactive; negative (positive in presence of nitrosating medium_ | Test System: Rat hepatoma cells, Strain/Indicator: H4IIE (Hprt/6-thioguanine), Metabolic Activation: None, Method: Standard plate inactive; negative (positive in presence of nitrosating medium)
active: Test System: AMES SALMONELLA TYPHIMURIUM, Strain/Indicator: TA98, Metabolic Activation: RAT LIVER S-9, AROCLOR 1254, Method: STANDARD PLATE active; positive | [4] active; positive | [6] active; positive | [9] active; positive | [10] active; positive | Test System: Ames Salmonella typhimurium, Strain/Indicator: TA102, Metabolic Activation: None, Method: Standard plate active; positive. nitrosation yielded mutagenic product | Test System: Ames Salmonella typhimurium, Strain/Indicator: TA102, Metabolic Activation: Rat, Liver, S-9, Aroclor 1254 (10%), Method: Standard plate active; positive. nitrosation yielded mutagenic product

O=C(/C=C/c1cccc([N+](=O)[O-])c1)c1ccccc1
inactive: [3] inactive; negative | [4] inactive; negative | [5] inactive; negative | [6] inactive; negative

O=C(COc1ccc(Cl)cc1Cl)N[C@@H](Cc1c[nH]c2ccccc12)C(=O)O
inactive: Test System: AMES SALMONELLA TYPHIMURIUM, Strain/Indicator: TA97, Metabolic Activation: RAT, LIVER, S-9, AROCLOR 1254, Method: STANDARD PLATE inactive; negative | Test System: AMES SALMONELLA TYPHIMURIUM, Strain/Indicator: TA97, Metabolic Activation: WOODCHUCK, LIVER, S-9, 3-METHYLCHOLANTHRENE, Method: STANDARD PLATE inactive; negative | [4] inactive; negative | Test System: AMES SALMONELLA TYPHIMURIUM, Strain/Indicator: TA98, Metabolic Activation: WOODCHUCK, LIVER, S-9, 3-METHYLCHOLANTHRENE, Method: STANDARD PLATE inactive; negative | [6] inactive; negative | Test System: AMES SALMONELLA TYPHIMURIUM, Strain/Indicator: TA100, Metabolic Activation: WOODCHUCK, LIVER, S-9, 3-METHYLCHOLANTHRENE, Method: STANDARD PLATE inactive; negative | [8] inactive; negative | Test System: AMES SALMONELLA TYPHIMURIUM, Strain/Indicator: TA1535, Metabolic Activation: WOODCHUCK, LIVER, S-9, 3-METHYLCHOLANTHRENE, Method: STANDARD PLATE inactive; negative | [11] inactive; negative | Test System: AMES SALMONELLA TYPHIMURIUM, Strain/Indicator: TA1538, Metabolic Activation: WOODCHUCK, LIVER, S-9, 3-METHYLCHOLANTHRENE, Method: STANDARD PLATE inactive; negative

Oc1cccc2c1sc1ccccc12
active: Test System: CHINESE HAMSTER OVARY, Strain/Indicator: CHO-K1-BH4 (HGPRT)/6-THIOGUANINE, Metabolic Activation: RAT, LIVER, S-9, AROCLOR (4%) active; positive

COC1OC1(C)C (stereo not given)
active: [5] active; positive | [7] active; positive

COc1nncc2ncccc12
inactive: [1] inactive; negative | Test System: AMES SALMONELLA TYPHIMURIUM, Strain/Indicator: TA98, Metabolic Activation: RAT, LIVER, S-9, PCB, Method: PREINCUBATION inactive; negative | [2] inactive; negative | Test System: AMES SALMONELLA TYPHIMURIUM, Strain/Indicator: TA100, Metabolic Activation: RAT, LIVER, S-9, PCB, Method: PREINCUBATION inactive; negative

N[C@@H](CSC(F)(F)C(F)(F)C(F)F)C(=O)O
inactive: Test System: AMES SALMONELLA TYPHIMURIUM, Strain/Indicator: TA100, Metabolic Activation: RAT, KIDNEY, S-9, AROCLOR 1254, Method: STANDARD PLATE inactive; negative
